# ± gives the expanded uncertainty stated by the source.
# Settings: Crystal; DTA
smiles,measurement,value
Cc1oncc1C(=O)Nc1ccc(C(F)(F)F)cc1,Normal melting temperature,169.00 ± 2 °C
